Assay results as given in patent publication US20060217418A1, “Substituted alkyl amido piperidines” (priority 2001, published 2006).

Biological target: T1, rat MCH1 receptor (Rattus norvegicus, UniProt P97639)
T1 construct: operatively linked to DNA encoding the rat MCH1 receptor so as to permit expression thereof; expressed in transfected cells; host or cells: Human embryonic kidney Peak rapid 293 (Peakr293) cells, transient calcium phosphate transfection, membranes
Assay: Radioligand binding assay at cloned rat MCH1 receptor ([3H]Compound A)
Details: cloned rat MCH1, Peakr293 cell membranes, 0.08 nM [3H]Compound A, 25° C., 90 minutes; read-out: Ki(MCH-1)

T1 sequence (P97639 whole entry): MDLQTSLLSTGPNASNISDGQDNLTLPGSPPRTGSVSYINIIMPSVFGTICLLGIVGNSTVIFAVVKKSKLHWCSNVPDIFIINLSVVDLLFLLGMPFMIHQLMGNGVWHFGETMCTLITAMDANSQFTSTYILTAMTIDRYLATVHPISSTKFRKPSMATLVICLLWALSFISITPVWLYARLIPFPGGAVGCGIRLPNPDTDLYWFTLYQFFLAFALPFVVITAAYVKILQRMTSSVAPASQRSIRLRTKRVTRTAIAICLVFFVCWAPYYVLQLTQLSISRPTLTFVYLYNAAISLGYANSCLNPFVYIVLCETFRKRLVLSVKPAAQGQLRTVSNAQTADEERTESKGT

SMILES	Ki [nM]
O=C(Nc1cccc(C2CCN(CCCNC(=O)C(c3ccc(F)cc3)c3ccc(F)cc3)CC2)c1)C1CC1 [Example 120, N-{3-[1-(3-{[2,2-BIS(4-FLUOROPHENYL)ACETYL]AMINO}PROPYL)-4-PIPERIDINYL] PHENYL}CYCLOPROPANECARBOXAMIDE]	0.4
CCCC(=O)Nc1ccc(C2CCN(CCCNC(=O)C(c3ccccc3)c3ccccc3)CC2)cc1 [Example 149]	467
CCC(C(=O)NCCCN1CCC(c2cccc(NC(=O)C(C)C)c2)CC1)(c1ccccc1)c1ccccc1 [Example 12]	13.9
CC(=O)Nc1cccc(C2CCN(CCCNC(=O)C3(c4ccc(F)cc4)CCCCC3)CC2)c1 [Example 70, N-(3-{4-[3-(ACETYLAMINO)PHENYL]-1-PIPERIDINYL}PROPYL)-1-(4-FLUORO PHENYL)CYCLOHEXANECARBOXAMIDE]	26.7
CC(C)C(=O)Nc1cncc(C2CCN(CCCNC(=O)C(c3ccccc3)c3ccccc3)CC2)c1 [Example 170, N-[5-(1-{3-[(diphenylacetyl)amino]propyl}-4-piperidinyl)-3-pyridinyl]-2-methyl propanamide]	19.1
CC(C)C(=O)Nc1cccc(C2CCN(CCCNC(=O)C(C)c3ccc(Cl)cc3)CC2)c1 (centres unmarked) [Example 37, 2-(4-CHLOROPHENYL)-N-(3-{4-[3-(ISOBUTYRYLAMINO)PHENYL]-1-PIPERIDINYL} PROPYL)PROPANAMIDE]	19.5
CCCC(=O)Nc1ccc(OC)c(C2CCN(CCCNC(=O)C(c3ccccc3)c3ccccc3)CC2)c1 [Example 22]	136
Cc1ccc(NC(=O)C(C)C)cc1C1CCN(CCCNC(=O)C2(c3ccc(F)cc3)CCCCC2)CC1 [Example 92]	2.6
CCCC(=O)Nc1cccc(C2CCN(CCCNC(=O)C3(c4ccc(F)cc4)CCCCC3)CC2)c1 [Example 87, N-(3-{4-[3-(BUTYRYLAMINO)PHENYL]-1-PIPERIDINYL}PROPYL)-1-(4-FLUOROPHENYL) CYCLOHEXANECARBOXAMIDE]	6.4
Cc1c(NC(=O)C(C)C)cccc1C1CCN(CCCNC(=O)C(c2ccccc2)c2ccccc2)CC1 [Example 33]	496
CC(C)C(=O)Nc1cccc(C2CCN(CCCNC(=O)C3(c4ccc(F)cc4)CCCCC3)CC2)n1 [Example 68, 1-(4-FLUOROPHENYL)-N-(3-{4-[6-(ISOBUTYRYLAMINO)-2-PYRIDINYL]-1-PIPERIDINYL} PROPYL)CYCLOHEXANECARBOXAMIDE]	16.9
CC(C)C(=O)Nc1ccc(F)c(C2CCN(CCCNC(=O)C(c3ccc(Cl)cc3)c3ccc(Cl)cc3)CC2)c1 [Example 54]	2.2
CC(C)C(=O)Nc1cccc(C2CCN(CCCNC(=O)C3(c4ccc(Cl)cc4)CC3)CC2)c1 [Example 44, 1-(4-CHLOROPHENYL)-N-(3-{4-[3-(ISOBUTYRYLAMINO)PHENYL]-1-PIPERIDINYL} PROPYL)CYCLOPROPANECARBOXAMIDE]	19.7
CC(C)C(=O)Nc1cccc(C2CCN(CCCNC(=O)C(C)(c3ccccc3)c3ccccc3)CC2)n1 [Example 83]	10.3
CCCC(=O)Nc1cccc(C2CCN(CCCNC(=O)C(C)(C)c3ccc(Cl)cc3)CC2)c1 [Example 80]	7.7
O=C(Nc1cccc(C2CCN(CCCNC(=O)C(c3ccc(F)cc3)c3ccc(F)cc3)CC2)c1)OCc1ccccc1 [Example 141, Benzyl 3-[1-(3-{[bis(4-fluorophenyl)acetyl]amino}propyl)-4-piperidinyl]phenylcarbamate]	8.8
Cc1ccc(NC(=O)C(C)C)cc1C1CCN(CCCNC(=O)C2(c3ccc(F)cc3Cl)CCCCC2)CC1 [Example 134]	2.4
CC(=O)Nc1cccc(C2CCN(CCCNC(=O)C(c3ccccc3)(c3ccccc3)c3ccccc3)CC2)c1 [Example 105, N-(3-{4-[3-(ACETYLAMINO)PHENYL]-1-PIPERIDINYL}PROPYL)-2,2,2-TRIPHENYL ACETAMIDE]	2.8
CCCC(=O)Nc1ccc(F)c(C2CCN(CCCNC(=O)C(c3ccccc3)c3ccccc3)CC2)c1 [Example 25]	2.1
CC[C@H](C(=O)NCCCN1CCC(c2cc(NC(=O)C(C)C)ccc2C)CC1)c1ccccc1 [Example 163, (2S)-N-(3-{4-[5-(isobutyrylamino)-2-methylphenyl]-1-piperidinyl}propyl)-2-phenylbutanamide]	20
CC(C)C(=O)Nc1cc(C2CCN(CCCNC(=O)C(c3ccccc3)c3ccccc3)CC2)ccc1F [Example 56]	4.5
CCC(=O)Nc1cccc(C2CCN(CCCNC(=O)C3(c4ccc(Cl)cc4)CCC3)CC2)c1 [Example 58, 1-(4-CHLOROPHENYL)-N-(3-{4-[3-PROPIONYLAMINO)PHENYL]-1-PIPERIDINYL} PROPYL)CYCLOBUTANECARBOXAMIDE]	45.9
CC(C)OC(=O)Nc1cccc(C2CCN(CCCNC(=O)C(c3ccc(Cl)cc3)c3ccc(Cl)cc3)CC2)c1 [Example 143, Isopropyl 3-[1-(3-{[bis(4-chlorophenyl)acetyl]amino}propyl)-4-piperidinyl]phenylcarbamate]	6.2
CC(C)(C)C(=O)Nc1cccc(C2CCN(CCCNC(=O)C(c3ccccc3)c3ccccc3)CC2)c1 [Example 18]	31.5

SMILES	Ki [nM]
CCCC(=O)Nc1cccc(C2CCN(CCCNC(=O)C3(c4ccc(F)cc4)CCCC3)CC2)c1 [Example 101, N-(3-{4-[3-(BUTYRYLAMINO)PHENYL]-1-PIPERIDINYL}PROPYL)-1-(4-FLUOROPHENYL) CYCLOPENTANECARBOXAMIDE]	11.2
CC(=O)Nc1cccc(C2CCN(CCCNC(=O)C(C)(C)c3ccc(Cl)cc3)CC2)c1 [Example 79, N-(3-{4-[3-(ACETYLAMINO)PHENYL]-1-PIPERIDINYL}PROPYL)-2-(4-CHLORO PHENYL)-2-METHYLPROPANAMIDE]	5.9
CC(C)C(=O)Nc1cc(C2CCN(CCCNC(=O)C(C)c3ccc(F)cc3)CC2)ccc1F (centres unmarked) [Example 46]	44.5
CC(C)C(=O)Nc1cccc(C2CCN(CCCNC(=O)C(c3ccccc3)(c3ccccc3)c3ccccc3)CC2)n1 [Example 82]	8.6
Cc1ccc(C(C(=O)NCCCN2CCC(c3cc(NC(=O)C(C)C)ccc3F)CC2)c2ccc(C)cc2)cc1 [Example 132]	0.6
O=C(CC(c1ccccc1)c1ccccc1)NCCCN1CCC(c2cccc(NC(=O)C3CC3)c2)CC1 [Example 151, N-[3-(1-{3-[(3,3-DIPHENYLPROPANOYL)AMINO]PROPYL}-4-PIPERIDINYL)PHENYL] CYCLOPROPANECARBOXAMIDE]	62
Nc1cccc(C2CCN(CCCNC(=O)C(c3ccccc3)c3ccccc3)CC2)c1 [Example 152]	115
CC(C)C(=O)Nc1cccc(C2CCN(CCCNC(=O)C3(c4ccc(F)cc4)CCCC3)CC2)c1 [Example 36, 1-(4-FLUOROPHENYL)-N-(3-{4-[3-(ISOBUTYRYLAMINO)PHENYL]-1-PIPERIDINYL} PROPYL)CYCLOPENTANECARBOXAMIDE]	11
CCCC(=O)Nc1cccc(C2CCN(CCCNC(=O)C(c3ccc(F)cc3)c3ccc(F)cc3)CC2)c1 [Example 27, N-{3-[1-(3-{[2,2-BIS(4-FLUOROPHENYL)ACETYL]AMINO}PROPYL)-4-PIPERIDINYL] PHENYL}BUTANAMIDE]	1.1
CCC(=O)Nc1cccc(C2CCN(CCCNC(=O)C3(c4ccc(Cl)cc4)CC3)CC2)c1 [Example 63, 1-(4-CHLOROPHENYL-N-(3-{4-[3-(PROPIONYLAMINO)PHENYL]-1-PIPERIDINYL} PROPYL)CYCLOPROPANECARBOXAMIDE]	150
Cc1ccc(NC(=O)C(C)C)cc1C1CCN(CCCNC(=O)C(c2ccc(Cl)cc2)c2ccc(Cl)cc2)CC1 [Example 52]	4.1
CC(C)C(=O)Nc1ccc(C2CCN(CCCNC(=O)C(c3ccccc3)c3ccccc3)CC2)cc1 [Example 148]	144
CC(C)C(=O)Nc1cccc(C2CCN(CCCNC(=O)C3(c4ccc(F)cc4)CCCC3)CC2)n1 [Example 66, 1-(4-FLUOROPHENYL)-N-(3-{4-[6-(ISOBUTYRYLAMINO)-2-pyridinyl]-piperidinyl}propyl) cyclopentanecarboxamide]	24.4
CC(C)C(=O)Nc1cc(C2CCN(CCCNC(=O)C(C)(C)c3ccc(Cl)cc3)CC2)ccc1F [Example 49]	14.8
CC(C)C(=O)Nc1cncc(C2CCN(CCCNC(=O)C(c3ccc(F)cc3)c3ccc(F)cc3)CC2)c1 [Example 172, N-{5-[1-(3-{[bis(4-fluorophenyl)acetyl]amino}propyl)-4-piperidinyl]-3-pyridinyl}-2-methylpropanamide]	2.5
Cc1ccc(NC(=O)C(C)C)cc1C1CCN(CCCNC(=O)C2(c3ccc(Cl)cc3)CC2)CC1 [Example 89]	10.8
CCC(=O)Nc1cccc(C2CCN(CCCNC(=O)C3(c4ccc(F)cc4)CCCCC3)CC2)c1 [Example 61, 1-(4-FLUOROPHENYL)-N-(3-{4-[3-(PROPIONYLAMINO)PHENYL]-1-PIPERIDINYL} PROPYL)CYCLOHEXANECARBOXAMIDE]	63.3
CC(C)C(=O)Nc1ccc(F)c(C2CCN(CCCNC(=O)C3(c4ccc(F)cc4)CCCCC3)CC2)c1 [Example 131]	4
Cc1ccc(NC(=O)C(C)C)cc1C1CCN(CCCNC(=O)[C@H](C)c2ccc(F)cc2)CC1 [Example 169, (2R)-2-(4-fluorophenyl)-N-(3-{4-[5-(isobutyrylamino)-2-methylphenyl]-1-piperidinyl}propyl) propanamide]	35.9
CCC(=O)Nc1cccc(C2CCN(CCCNC(=O)C(Br)c3ccccc3)CC2)c1 (centres unmarked) [Example 10, N-[3-(1-{3-[(2-BROMO-2-PHENYLACETYL)AMINO]PROPYL}-4-PIPERIDINYL) PHENYL]PROPANAMIDE]	83
CCC(=O)Nc1cccc(C2CCN(CCCNC(=O)C3(c4ccc(F)cc4)CCCC3)CC2)c1 [Example 60]	41.3
CC(C)C(=O)Nc1ccc(F)c(C2CCN(CCCNC(=O)C3(c4ccc(F)cc4Cl)CCCC3)CC2)c1 [Example 137, 1-(2-CHLORO-4-FLUOROPHENYL)-N-(3-{4-[2-FLUORO-5-(ISOBUTYRYLAMINO) PHENYL]-1-PIPERIDINYL}PROPYL)CYCLOPENTANECARBOXAMIDE]	11.8
O=C(Nc1cccc(C2CCN(CCCNC(=O)C3(c4ccc(Cl)cc4)CCCC3)CC2)c1)C1CC1 [Example 112]	3.2
